Columns and labels:
[1] = target: T1, human carbonic anhydrase II (hCA II) (Homo sapiens, UniProt P00918); assay: hCA II inhibition assay (Maren method, CO2 hydration); assay type: biochemical; conditions: purified human erythrocyte hCA II, CO2 as substrate
T1 construct: from tissue
Protocol: (§1) Blood samples (25 mL) were taken from healthy human volunteers. They were anticoagulated with acid-citrate-dextrose and centrifuged at 2000 g for 20 min at 4°C and the supernatant was removed. The packed erythrocytes were washed three times with 0.9% NaCl and then haemolysed in cold water. The ghosts and any intact cells were removed by centrifugation at 2000 g for 25 min at 4°C, and the pH of the haemolysate was adjusted to pH 8.5 with solid Tris-base. The 25 mL haemolysate was applied to an affinity column containing L-tyrosine-sulfonamide-sepharose-4B [21] equilibrated with 25 mM Tris-HCl/0.1 M Na2SO4 (pH 8.5). The affinity gel was washed with 50 mL of 25 mM Tris-HCl/22 mM Na2SO4 (pH 8.5). The hCA isozymes were then eluted with 0.1 M NaCl/25 mM Na2HPO4 (pH 6.3) and 0.1 M CH3COONa/0.5 M NaClO4 (pH 5.6), which recovered hCA I and hCA II, respectively. Fractions of 3 mL were collected and their absorbance was measured at 280 nm.
(§2) CA activity was measured by the Maren method which is based on determination of the time required for the pH to decrease from 10.0 to 7.4 due to CO2 hydration. The assay solution was 0.5 M Na2CO3/0.1 M NaHCO3 (pH 10.0) and Phenol Red was added as the pH indicator. CO2-hydratase activity (enzyme units (EU)) was calculated by using the equation t 0 − t c/t c, where t 0 and t c are the times for pH change of the nonenzymatic and the enzymatic reactions, respectively.
(§3) For the inhibition studies of indolylchalcone and pyrido[2,3-d]pyrimidine derivatives, different concentrations of these compounds were added to the enzyme. Activity percentage values of CA for different concentrations of each pyrimidine derivatives were determined by regression analysis using Microsoft Office 2000 Excel. CA enzyme activity without these compounds was accepted as 100% activity.

[2] = target: T2, human carbonic anhydrase I (hCA I) (Homo sapiens, UniProt P00915); assay: hCA I inhibition assay (Maren method, CO2 hydration); assay type: biochemical; conditions: purified human erythrocyte hCA I, CO2 as substrate
T2 construct: from tissue
T2 sequence (P00915 whole entry): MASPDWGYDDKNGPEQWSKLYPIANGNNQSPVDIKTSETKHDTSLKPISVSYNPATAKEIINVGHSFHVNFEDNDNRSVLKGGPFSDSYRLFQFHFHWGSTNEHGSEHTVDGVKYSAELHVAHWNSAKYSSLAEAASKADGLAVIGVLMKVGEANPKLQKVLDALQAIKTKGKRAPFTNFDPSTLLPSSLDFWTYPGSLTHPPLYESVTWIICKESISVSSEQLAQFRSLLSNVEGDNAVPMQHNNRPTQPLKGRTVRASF
Protocol: as §1, §2, §3

Row | Structure (SMILES) | IC50 [1] [µM] | melting point [°C] | IC50 [2] [µM]
1 | COc1ccc(C(=O)/C=C/c2cn(C)c3ccccc23)cc1OC [Compound 5a, (E)-1-(3,4-Dimethoxyphenyl)-3-(1-methyl-1H-indol-3-yl) prop-2-en-1-one] | 8.88 | 271 | 8.34
2 | COc1ccc(C(=O)/C=C/c2cn(C)c3ccccc23)cc1 [Compound 5b, (E)-1-(4-Methoxyphenyl)-3-(1-methyl-1H-indol-3-yl) prop-2-en-1-one] | 10.3 | 254 | 7.42
3 | Cc1ccc(C(=O)/C=C/c2cn(C)c3ccccc23)cc1 [Compound 5c, (E)-3-(1-Methyl-1H-indol-3-yl)-1-p-tolylprop-2-en-1-One] | 12.3 | 240 | 13.1
4 | Cn1cc(/C=C/C(=O)c2ccc(Cl)cc2)c2ccccc21 [Compound 5d, (E)-1-(4-Chlorophenyl)-3-(1-methyl-1H-indol-3-yl)prop-2-en-1-one] | 8.26 | 248 | 8.2
5 | Cn1cc(/C=C/C(=O)c2ccccc2)c2ccccc21 [Compound 5e, (E)-3-(1-Methyl-1H-indol-3-yl)-1-phenylprop-2-en-1-one] | 9.15 |  | 12.8
6 | Cn1cc(/C=C/C(=O)c2ccc([N+](=O)[O-])cc2)c2ccccc21 [Compound 5f, (E)-3-(1-Methyl-1H-indol-3-yl)-1-(4-nitrophenyl)prop-2-en-1-one] | 9.31 | 278 | 10.9
7 | Cn1cc(/C=C/C(=O)c2cccc([N+](=O)[O-])c2)c2ccccc21 [Compound 5g, (E)-3-(1-Methyl-1H-indol-3-yl)-1-(3-nitrophenyl)prop-2-en-1-one] | 7.22 | 267 | 8.38
8 | COc1ccc(-c2cc(-c3cn(C)c4ccccc34)c3c(=O)[nH]c(=O)n(C)c3n2)cc1OC [Compound 7a, 7-(3,4-Dimethoxyphenyl)-1-methyl-5-(1-methyl-1H-indol-3-yl)pyrido[2,3-d]pyrimidine-2,4(1H,3H)-dione] | 19.4 | 333 to 334 | 16.3
9 | Cc1ccc(-c2cc(-c3cn(C)c4ccccc34)c3c(=O)[nH]c(=O)n(C)c3n2)cc1 [Compound 7b, 1-Methyl-5-(1-methyl-1H-indol-3-yl)-7-p-tolylpyrido[2,3-d]pyrimidine-2,4(1H,3H)-dione] | 12.1 | 399 to 400 | 11.6
10 | Cn1cc(-c2cc(-c3ccc(Cl)cc3)nc3c2c(=O)[nH]c(=O)n3C)c2ccccc21 [Compound 7c, 7-(4-Chlorophenyl)-1-methyl-5-(1-methyl-1H-indol-3-yl)pyrido[2,3-d]pyrimidine-2,4(1H,3H)-dione] | 31.1 | 385 to 389 | 21.1
11 | Cn1cc(-c2cc(-c3cccc([N+](=O)[O-])c3)nc3c2c(=O)[nH]c(=O)n3C)c2ccccc21 [Compound 7d, 1-Methyl-5-(1-methyl-1H-indol-3-yl)-7-(3-nitrophenyl)pyrido[2,3-d]pyrimidine-2,4(1H,3H)-dione] | 13.7 | 397 | 12.1
12 | COc1ccc(-c2cc(-c3cn(C)c4ccccc34)c3c(=O)n(C)c(=O)n(C)c3n2)cc1OC [Compound 7e, 7-(3,4-Dimethoxyphenyl)-1,3-dimethyl-5-(1-methyl-1H-indol-3-yl)pyrido[2,3-d]pyrimidine-2,4(1H,3H)-dione] | 8.06 | 340 to 341 | 6.79
13 | COc1ccc(-c2cc(-c3cn(C)c4ccccc34)c3c(=O)n(C)c(=O)n(C)c3n2)cc1 [Compound 7f, 7-(4-Methoxyphenyl)-1,3-dimethyl-5-(1-methyl-1H-indol-3-yl)pyrido[2,3-d]pyrimidine-2,4(1H,3H)-dione] | 25.4 | 335.7 to 336 | 26.2
14 | Cc1ccc(-c2cc(-c3cn(C)c4ccccc34)c3c(=O)n(C)c(=O)n(C)c3n2)cc1 [Compound 7g, 1,3-Dimethyl-5-(1-methyl-1H-indol-3-yl)-7-p-tolylpyrido[2,3-d]pyrimidine-2,4(1H,3H)-dione] | 7.57 | 340 to 341 | 7.61
15 | Cn1c(=O)c2c(-c3cn(C)c4ccccc34)cc(-c3ccc(Cl)cc3)nc2n(C)c1=O [Compound 7h, 7-(4-Chlorophenyl)-1,3-dimethyl-5-(1-methyl-1H-indol-3-yl)pyrido[2,3-d]pyrimidine 2,4(1H,3H)-dione] | 24.7 | 358 to 359 | 12.4
16 | Cn1c(=O)c2c(-c3cn(C)c4ccccc34)cc(-c3ccccc3)nc2n(C)c1=O [Compound 7i, 1,3-Dimethyl-5-(1-methyl-1H-indol-3-yl)-7-phenylpyrido[2,3-d]pyrimidine-2,4(1H,3H)-dione] | 8.14 | 320 | 8.72
17 | Cn1c(=O)c2c(-c3cn(C)c4ccccc34)cc(-c3ccc([N+](=O)[O-])cc3)nc2n(C)c1=O [Compound 7j, 1,3-Dimethyl-5-(1-methyl-1H-indol-3-yl)-7-(4-nitrophenyl)pyrido[2,3-d]pyrimidine-2,4(1H,3H)-dione] | 9.56 | 347 to 349 | 10.2
18 | Cn1c(=O)c2c(-c3cn(C)c4ccccc34)cc(-c3cccc([N+](=O)[O-])c3)nc2n(C)c1=O [Compound 7k, 1,3-Dimethyl-5-(1-methyl-1H-indol-3-yl)-7-(3-nitrophenyl)pyrido[2,3-d]pyrimidine-2,4(1H,3H)-dione] | 26.7 | 349 to 350 | 22.3
